Entries after “also recorded” stand apart in the source; their conditions may differ. Read-outs that look alike come from different tables or passages of the source.
Tests used:
human OCT1 [1] = biological target: T1, human OCT1 (Homo sapiens, UniProt O15245); experiment: Cellular uptake by HEK293 cells overexpressing human OCT1 (wildtype); details: for transport by human OCT1 (saturability): concentration-dependent uptake, stably transfected HEK293, 2 min
T1 sequence (O15245 1-554): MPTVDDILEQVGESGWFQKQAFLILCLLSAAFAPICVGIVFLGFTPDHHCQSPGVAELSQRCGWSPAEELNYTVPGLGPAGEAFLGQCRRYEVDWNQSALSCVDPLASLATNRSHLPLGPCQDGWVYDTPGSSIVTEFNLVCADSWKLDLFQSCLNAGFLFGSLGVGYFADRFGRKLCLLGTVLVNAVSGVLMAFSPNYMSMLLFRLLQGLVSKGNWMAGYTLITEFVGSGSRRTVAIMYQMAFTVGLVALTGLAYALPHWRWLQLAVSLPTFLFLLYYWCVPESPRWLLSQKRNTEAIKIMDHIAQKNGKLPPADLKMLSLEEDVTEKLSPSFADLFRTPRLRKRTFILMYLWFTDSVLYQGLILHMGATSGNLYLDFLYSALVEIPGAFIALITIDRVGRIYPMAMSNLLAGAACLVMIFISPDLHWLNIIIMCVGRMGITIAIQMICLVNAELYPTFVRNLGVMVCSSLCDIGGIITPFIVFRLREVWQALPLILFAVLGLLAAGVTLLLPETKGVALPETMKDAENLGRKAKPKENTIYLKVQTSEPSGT
Method: (§1) Generation and characterization of these cell lines has been described in detail before ([34], [48], [49]). Cells were cultured in Dulbecco’s Modified Eagle’s Medium supplemented with 10% fetal bovine serum, 100 U/ml penicillin, and 100 μg/ml streptomycin at 37 °C and 5% CO2 and were passaged twice a week.
(§2) At 48 h prior to the experiment, 6 × 10^5 cells were seeded per well in 12-well plates. When using transiently transfected cells, 5 × 10^5 T-REx-293 cells (Life Technologies) were seeded per well in 12-well plates 72 h prior to the experiment, and they were transfected 24 h later as described previously. Twelve-well plates were precoated with poly-D-lysine.
(§3) Cellular uptake experiments were performed at 37 °C and pH 7.4 using HBSS supplemented with 10 mM Hepes (in the following referred to as HBSS+). Cells were washed with 1 ml prewarmed (37 °C) HBSS+, and the uptake was initiated by adding 400 μl of prewarmed HBSS+ containing the substrate. Uptake was allowed for exactly 2 min and afterward stopped by adding 2 ml ice-cold HBSS+. Cells were washed twice with 2 ml ice-cold HBSS+ and lysed with 80% acetonitrile supplemented with internal standard, 0.1 N NaOH/0.1% SDS, or radioimmunoprecipitation buffer for LC–MS/MS, liquid scintillation counting, or fluorescence spectroscopy detection, respectively. Intracellular substrate concentrations were measured as described in the following and were then normalized to the amount of total protein in the samples as measured using the bicinchoninic acid assay ([51]).
(§4) For LC–MS/MS quantification of intracellular substrate concentrations, the cell lysate was centrifuged at 16,000g for 15 min, and 350 μl of supernatant was evaporated to dryness under nitrogen flow at 40 °C. The sample was reconstituted with 200 μl 0.1% formic acid, and between 2 and 30 μl were injected into the LC–MS/MS system (Table S1).
(§5) An API4000 QTRAP tandem mass spectrometer with ESI interface (AB SCIEX) was used, coupled to a Shimadzu Nexera X2 UHPLC system with LC 30AD pumps and SiL 30AC autosampler (Shimadzu).
(§6) Intracellular concentrations of radioactively labeled substrates MPP^+ and TEA^+ were quantified using liquid scintillation counting. To this end, 400 μl cell lysate was transferred into a 20 ml scintillation vial, 9 ml Aquasafe 500 Plus liquid scintillator (both Zinsser Analytics) was added, and the sample was measured in the Scintillation Counter LS6500 (Beckman Coulter).
(§7) For both analyses, SPSS Statistics, version 28 (SPSS, Inc, IBM) was used.

mouse Oct1 [2] = biological target: T2, mouse Oct1 (Mus musculus, UniProt O08966); experiment: Cellular uptake by HEK293 cells overexpressing mouse Oct1 (wildtype)
T2 sequence (O08966 1-556): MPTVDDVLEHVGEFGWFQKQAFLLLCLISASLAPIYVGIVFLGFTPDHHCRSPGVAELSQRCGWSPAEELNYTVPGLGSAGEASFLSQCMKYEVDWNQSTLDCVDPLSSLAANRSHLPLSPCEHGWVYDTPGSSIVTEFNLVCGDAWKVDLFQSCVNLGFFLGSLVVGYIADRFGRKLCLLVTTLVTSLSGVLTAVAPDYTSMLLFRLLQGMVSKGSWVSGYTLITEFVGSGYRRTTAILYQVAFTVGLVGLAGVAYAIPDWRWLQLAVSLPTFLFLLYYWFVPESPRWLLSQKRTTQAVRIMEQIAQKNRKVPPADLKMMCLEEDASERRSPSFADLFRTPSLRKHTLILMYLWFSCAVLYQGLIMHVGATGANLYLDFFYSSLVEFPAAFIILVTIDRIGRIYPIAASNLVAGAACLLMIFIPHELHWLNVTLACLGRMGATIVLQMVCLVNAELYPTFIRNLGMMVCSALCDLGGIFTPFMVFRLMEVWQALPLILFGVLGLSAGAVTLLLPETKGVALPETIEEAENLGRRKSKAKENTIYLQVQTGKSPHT
Method: as §1, §2, §3, §4, §5, §6, §7

mouse Oct1 [3] = biological target: T2, mouse Oct1; set-up: expressed in transfected cells; method as in PMID 33037045, PMID 34040533; details: HEK293 stably transfected, 2 min, data previously published, ref [34], [35], cited from earlier work; for Km: read-out: KM ± SD, mOct1
human OCT1 [4] = biological target: T1, human OCT1; set-up: expressed in transfected cells; method as in PMID 33037045, PMID 34040533; details: HEK293 stably transfected, 2 min, data previously published, ref [34], [35], cited from earlier work; for Km: read-out: KM ± SD, hOCT1
[5] = human versus mouse OCT1, stably transfected HEK293
[6] = HEK293 stably transfected, 2 min uptake, 37 °C, pH 7.4, OCT1-mediated uptake
[7] = ASP^+ by fluorescence spectroscopy, HEK293 stably transfected, 2 min
[8] = read-out: KM ± SD, hOCT1, HEK293 stably transfected, 2 min uptake, 37 °C, pH 7.4

For `C[N+](C)(C)CCO` [Choline], the “transport by human OCT1 (saturability)” value (human OCT1 [1]) was “lacked any saturable transport; also recorded: not transported at all”.
In the case of `CC(CCc1ccc(O)cc1)NCC(O)c1ccc(O)cc1` (centres unmarked) [Ractopamine], the “fold higher affinity (KM) of human than of mouse OCT1” value (human OCT1 [1]; [5]) is reported as “comparable between human and mouse OCT1”.
For `COc1ccc(CC(C)NCC(O)c2ccc(O)c(NC=O)c2)cc1` (centres unmarked) [Formoterol], the “vmax ± SD, hOCT1” value (human OCT1 [1]; [6]) was 434 ± 111 pmol × min^−1 × mg protein^−1 and the “vmax ± SD, mOct1” value (mouse Oct1 [2]; [6]) was 1458 ± 317 pmol × min^−1 × mg protein^−1.
For `C[N+]1(C)[C@@H]2C[C@@H](OC(=O)C(O)(c3cccs3)c3cccs3)C[C@H]1[C@@H]1O[C@@H]12` [Tiotropium], the Km (human OCT1 [1]; human, pH 7.4) was 7.82 ± 1.77 µM, the “vmax ± SD, hOCT1” value (human OCT1 [1]; pH 7.4) was 836 ± 322 pmol × min^−1 × mg protein^−1 and the Km (mouse Oct1 [2]; mouse, pH 7.4) was 1.47 ± 0.12 µM. For the same compound, the “vmax ± SD, mOct1” value (mouse Oct1 [2]; pH 7.4) was 285 ± 87.1 pmol × min^−1 × mg protein^−1.
In the case of `CC(C)C(=O)O[C@H](CC(=O)[O-])C[N+](C)(C)C` [IBC, isobutyryl-L-carnitine], the “transport by human OCT1 (saturability)” value (human OCT1 [1]) is given as “not transported at all”, the “transport by human OCT1 (saturability)” value (human OCT1 [1]; listed as isobutyryl-L-carnitine (IBC)) is given as “lacked any saturable transport” and the “vmax ± SD, mOct1” value (mouse Oct1 [3]) is given as 8366 ± 1705 pmol × min^−1 × mg protein^−1. The Km (mouse Oct1 [3]) was 1380 ± 356 µM.
For `Cc1ncc(C[n+]2csc(CCO)c2C)c(N)n1` [Thiamine], the “vmax ± SD, hOCT1” value (human OCT1 [4]) is given as 8261 ± 3720 pmol × min^−1 × mg protein^−1, the Km (human OCT1 [4]) is given as 1060 ± 341 µM and the “vmax ± SD, mOct1” value (mouse Oct1 [3]) is given as 3712 ± 1031 pmol × min^−1 × mg protein^−1. For the same compound, the Km (mouse Oct1 [3]) was 143 ± 96.3 µM.
In the case of `CN(C)C(=N)N=C(N)N` [Metformin], the “vmax ± SD, hOCT1” value (human OCT1 [4]) is given as 14,703 ± 4346 pmol × min^−1 × mg protein^−1, the Km (human OCT1 [4]) is given as 2200 ± 1150 µM and the “vmax ± SD, mOct1” value (mouse Oct1 [3]) is given as 17,496 ± 7097 pmol × min^−1 × mg protein^−1. For the same compound, the Km (mouse Oct1 [3]) was 491 ± 155 µM.
With `NC[C@H](O)c1ccc(O)c(O)c1` [Noradrenaline] the “transport by human OCT1 (saturability)” value (human OCT1 [1]) was “lacked any saturable transport”.
For `CC(C)NCC(O)c1cc(O)cc(O)c1` (centres unmarked) [Orciprenaline], the “fold lower affinity (KM) of human OCT1 than mouse Oct1 (higher affinity of mouse Oct1)” value (human OCT1 [1]; [5]) was “more than sixfold higher affinity of mouse Oct1”.
With `[H]/N=C(/N)N/C(=N/[H])NCCc1ccccc1` [Phenformin] the “CLint ± SD, hOCT1” value (human OCT1 [1]; human, pH 7.4) was 106 ± 22.8 μl × min^−1 × mg protein^−1 and the “CLint ± SD, mOct1” value (mouse Oct1 [2]; mouse, pH 7.4) was 143 ± 26.2 μl × min^−1 × mg protein^−1.
With `CN(C)c1ccc(C=Cc2cc[n+](C)cc2)cc1` [ASP^+, 4-(4-(dimethylamino)styryl)-N-methylpyridinium] the “vmax ± SD, hOCT1” value (human OCT1 [1]; [7]) was 361,671 ± 2974 RFU × min^−1 × mg protein^−1, the Km (human OCT1 [1]; [8]) was 63 ± 15.3 µM and the “vmax ± SD, mOct1” value (mouse Oct1 [2]; [7]) was 53,802 ± 7155 RFU × min^−1 × mg protein^−1. For the same compound, the Km (mouse Oct1 [2]; read-out: KM ± SD, mOct1, HEK293 stably transfected, 2 min uptake, 37 °C, pH 7.4) was 12.8 ± 2.97 µM.
With `C[n+]1ccc(-c2ccccc2)cc1` [MPP^+, 1-methyl-4-phenylpyridinium] the “vmax ± SD, hOCT1” value (human OCT1 [1]; [6]) was 3112 ± 419 pmol × min^−1 × mg protein^−1, the Km (human OCT1 [1]; [8]) was 71.1 ± 17.3 µM and the “CLint ± SD, mOct1” value (mouse Oct1 [2]) was 80.8 ± 12.1 μl × min^−1 × mg protein^−1. For the same compound, the Km (mouse Oct1 [2]; pH 7.4) was 24.4 ± 7.95 µM and the “vmax ± SD, mOct1” value (mouse Oct1 [2]; pH 7.4) was 1910 ± 450 pmol × min^−1 × mg protein^−1.
For `CC[N+](CC)(CC)CC` [TEA^+, tetraethylammonium], the “CLint ± SD, hOCT1” value (human OCT1 [1]) was 6.31 ± 2.45 μl × min^−1 × mg protein^−1, the Km (human OCT1 [1]; pH 7.4) was 749 ± 438 µM and the “vmax ± SD, hOCT1” value (human OCT1 [1]; pH 7.4) was 4207 ± 1511 pmol × min^−1 × mg protein^−1. The “CLint ± SD, mOct1” value (mouse Oct1 [2]) was 27.6 ± 9.72 μl × min^−1 × mg protein^−1, the Km (mouse Oct1 [2]; pH 7.4) was 305 ± 141 µM and the “vmax ± SD, mOct1” value (mouse Oct1 [2]; pH 7.4) was 7764 ± 2883 pmol × min^−1 × mg protein^−1.
In the case of `CC(NCCc1ccc(O)cc1)C(O)c1ccc(O)cc1` (centres unmarked) [Ritodrine], the “fold higher affinity (KM) of human than of mouse OCT1” value (human OCT1 [1]; [5]) is reported as about 10 fold.
With `C[N@+]1(CC2CC2)CC[C@]23c4c5ccc(O)c4O[C@H]2C(=O)CC[C@@]3(O)[C@H]1C5` [Methylnaltrexone] the “vmax ± SD, mOct1” value (mouse Oct1 [2]; [6]) was 414 ± 130 pmol × min^−1 × mg protein^−1.

Reference: PMC9130538, “Amino acids in transmembrane helix 1 confer major functional differences between human and mouse orthologs of the polyspecific membrane transporter OCT1” (The Journal of Biological Chemistry, 2022)
